Assay results as given in ChEMBL document CHEMBL4825757, “Optimization of 4,6-Disubstituted Pyrido[3,2-d]pyrimidines as Dual MNK/PIM Inhibitors to Inhibit Leukemia Cell Growth” (J Med Chem, 2021).
Calls of active or inactive are those of the source. The rule behind the calls is not given here.

Columns and labels:
[1] = test system: MOLM-13; assay: Induction of apoptosis in human MOLM-13 cells assessed as early apoptotic cells at 1 uM incubated for 12 hrs by annexin-V and propidium iodide staining based flow cytometry analysis (reference value: 5.40%); format: functional
[2] = test system: MOLM-13; assay: Antitumor activity against human MOLM-13 cells xenografted in NOD/SCID mouse assessed as tumor growth inhibition at 10 mg/kg, ip daily for 2 weeks; format: functional; details: MOLM-13, ip, 336 h, read-out: TGI
[3] = test system: MOLM-13; assay: Downregulation of mcl-1 levels in human MOLM-13 cells at 1 to 2 uM incubated for 12 hrs by western blot analysis; format: functional, cell-based; details: dose 1-2 µM
[4] = test system: MOLM-13; assay: Antitumor activity against human MOLM-13 cells xenografted in NOD/SCID mouse assessed as tumor growth inhibition at 5 mg/kg, ip daily for 2 weeks; format: functional; details: MOLM-13, ip, 336 h, read-out: TGI
[5] = target: T1, MAP kinase-interacting serine/threonine-protein kinase 1/2 (Homo sapiens) (UniProt Q9HBH9+Q9BUB5); assay: Inhibition of MNK1/MNK2 in human K562 cells assessed as reduction in eIF4E phosphorylation at 1 to 2 uM incubated for 24 hrs by western blot analysis; format: cell-based; details: dose 1-2 µM
[6] = target: MAP kinase-interacting serine/threonine-protein kinase 1 (Homo sapiens, UniProt Q9BUB5); assay: Inhibition of wild type human full length MKN1 (M1 to L424) expressed in mammalian expression system at 1 uM by Kinomescan method relative to control
MAP kinase-interacting serine/threonine-protein kinase 1, sequence (Q9BUB5 whole entry, looked up): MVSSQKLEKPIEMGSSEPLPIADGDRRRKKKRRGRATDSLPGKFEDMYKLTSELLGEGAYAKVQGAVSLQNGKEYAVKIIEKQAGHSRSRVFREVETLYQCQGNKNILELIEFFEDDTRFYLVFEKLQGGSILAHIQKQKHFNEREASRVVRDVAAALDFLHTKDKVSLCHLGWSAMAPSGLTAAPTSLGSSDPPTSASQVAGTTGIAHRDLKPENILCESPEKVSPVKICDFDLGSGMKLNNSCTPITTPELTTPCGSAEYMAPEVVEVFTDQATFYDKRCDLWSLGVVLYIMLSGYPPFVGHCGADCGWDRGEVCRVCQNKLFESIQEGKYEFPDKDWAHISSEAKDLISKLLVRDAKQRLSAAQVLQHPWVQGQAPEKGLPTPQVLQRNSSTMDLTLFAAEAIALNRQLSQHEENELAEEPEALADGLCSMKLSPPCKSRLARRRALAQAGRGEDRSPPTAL

[7] = Metabolic stability in human liver microsomes assessed as half life preincubated for 10 mins followed by NADPH addition and further incubated upto 60 mins by LC-MS/MS analysis; format: ADME, Microsome; details: time <=70 min
[8] = Intrinsic clearance in rat liver microsomes preincubated for 10 mins followed by NADPH addition and further incubated upto 60 mins by LC-MS/MS analysis; format: ADME, Microsome; details: time <=70 min, read-out: CLH
[9] = target: Serine/threonine-protein kinase PIM (Homo sapiens) (UniProt P11309+Q9P1W9+Q86V86); assay: Inhibition of PIM in human MOLM-13 cells assessed as reduction in phosphorylated 4EBP1 at 1 to 2 uM incubated for 12 hrs by western blot analysis; format: cell-based; details: dose 1-2 µM
Serine/threonine-protein kinase PIM (Homo sapiens), sequence (P11309 whole entry, looked up): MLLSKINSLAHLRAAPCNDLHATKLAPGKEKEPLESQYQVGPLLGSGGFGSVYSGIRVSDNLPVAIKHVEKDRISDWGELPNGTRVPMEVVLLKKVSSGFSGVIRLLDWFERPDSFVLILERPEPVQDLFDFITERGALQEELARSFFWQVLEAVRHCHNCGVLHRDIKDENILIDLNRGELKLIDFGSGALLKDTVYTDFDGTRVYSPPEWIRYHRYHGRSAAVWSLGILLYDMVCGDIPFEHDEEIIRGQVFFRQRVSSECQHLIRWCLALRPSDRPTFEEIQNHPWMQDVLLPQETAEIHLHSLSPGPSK
Serine/threonine-protein kinase PIM (Homo sapiens), sequence (Q9P1W9 whole entry, looked up): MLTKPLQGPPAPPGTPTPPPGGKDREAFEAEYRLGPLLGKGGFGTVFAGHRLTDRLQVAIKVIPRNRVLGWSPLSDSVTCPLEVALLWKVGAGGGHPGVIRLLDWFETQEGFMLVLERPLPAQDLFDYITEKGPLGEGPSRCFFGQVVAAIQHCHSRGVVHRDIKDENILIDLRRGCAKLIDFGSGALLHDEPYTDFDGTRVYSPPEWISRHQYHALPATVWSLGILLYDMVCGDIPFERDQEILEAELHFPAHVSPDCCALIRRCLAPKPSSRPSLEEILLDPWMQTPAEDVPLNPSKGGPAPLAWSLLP

[10] = test system: MOLM-13; assay: Antitumor activity against human MOLM-13 cells xenografted in NOD/SCID mouse assessed as decrease in 4EBP1 phosphorylation at 5 to 10 mg/kg, ip daily for 2 weeks by western blot analysis; format: functional, organism-based; details: dose 5-10 mg/kg
[11] = test system: K562; assay: Downregulation of cyclin-D1 levels in human K562 cells at 1 to 2 uM incubated for 24 hrs by western blot analysis; format: functional, cell-based; details: dose 1-2 µM
[12] = test system: MOLM-13; assay: Induction of apoptosis in human MOLM-13 cells assessed as necrotic cells at 2 uM incubated for 12 hrs by annexin-V and propidium iodide staining based flow cytometry analysis (reference value: 0.06%); format: functional
[13] = target: MAP kinase-interacting serine/threonine-protein kinase 2 (Homo sapiens, UniProt Q9HBH9); assay: Inhibition of MKN2 (unknown origin) in presence of ATP by HTRF assay
MAP kinase-interacting serine/threonine-protein kinase 2, sequence (Q9HBH9 whole entry): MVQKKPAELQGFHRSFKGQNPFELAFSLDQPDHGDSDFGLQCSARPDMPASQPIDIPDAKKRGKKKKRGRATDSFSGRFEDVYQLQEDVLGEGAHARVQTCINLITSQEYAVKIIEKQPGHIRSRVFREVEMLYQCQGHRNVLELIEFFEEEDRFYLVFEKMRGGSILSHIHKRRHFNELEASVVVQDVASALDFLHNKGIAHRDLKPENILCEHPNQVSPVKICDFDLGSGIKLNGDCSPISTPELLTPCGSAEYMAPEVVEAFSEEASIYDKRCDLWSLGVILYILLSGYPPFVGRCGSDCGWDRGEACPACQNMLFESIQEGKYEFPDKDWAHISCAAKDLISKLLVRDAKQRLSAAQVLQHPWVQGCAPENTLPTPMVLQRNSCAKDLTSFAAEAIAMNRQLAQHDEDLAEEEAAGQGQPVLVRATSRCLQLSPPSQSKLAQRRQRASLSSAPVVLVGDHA

[14] = test system: MOLM-13; assay: Induction of apoptosis in human MOLM-13 cells assessed as early apoptotic cells at 2 uM incubated for 12 hrs by annexin-V and propidium iodide staining based flow cytometry analysis (reference value: 5.40%); format: functional
[15] = Tmax in Sprague Dawley rat at 10 mg/kg, ip measured after 24 hrs; format: ADME, organism-based; details: in vivo
[16] = target: Serine/threonine-protein kinase B-raf (Homo sapiens, UniProt P15056); assay: Inhibition of wild-type human partial length BRAF (S429 to E741 residues) expressed in mammalian expression system at 1 uM by Kinomescan method relative to control
Serine/threonine-protein kinase B-raf, sequence (P15056 whole entry, the tested form may be a part): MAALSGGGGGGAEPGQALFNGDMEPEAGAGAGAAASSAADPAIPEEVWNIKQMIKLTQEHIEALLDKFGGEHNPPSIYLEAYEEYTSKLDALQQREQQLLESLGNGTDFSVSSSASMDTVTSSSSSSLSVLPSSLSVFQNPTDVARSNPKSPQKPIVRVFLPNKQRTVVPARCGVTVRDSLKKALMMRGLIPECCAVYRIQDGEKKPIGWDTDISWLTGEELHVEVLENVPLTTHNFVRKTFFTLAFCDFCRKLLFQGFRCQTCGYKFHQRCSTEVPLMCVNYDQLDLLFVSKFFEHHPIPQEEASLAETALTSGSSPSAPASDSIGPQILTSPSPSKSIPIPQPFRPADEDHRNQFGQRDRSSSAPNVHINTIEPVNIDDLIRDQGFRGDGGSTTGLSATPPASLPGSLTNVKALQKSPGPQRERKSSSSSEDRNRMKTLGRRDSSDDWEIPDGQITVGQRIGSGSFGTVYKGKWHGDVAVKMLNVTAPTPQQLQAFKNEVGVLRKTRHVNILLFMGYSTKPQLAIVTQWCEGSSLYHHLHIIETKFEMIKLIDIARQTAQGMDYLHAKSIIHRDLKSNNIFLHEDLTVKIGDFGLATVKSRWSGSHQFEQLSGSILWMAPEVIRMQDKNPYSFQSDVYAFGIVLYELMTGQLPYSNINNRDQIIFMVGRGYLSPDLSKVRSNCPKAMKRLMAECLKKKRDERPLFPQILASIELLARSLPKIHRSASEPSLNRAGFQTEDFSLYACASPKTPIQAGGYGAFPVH

[17] = test system: MOLM-13; assay: Antitumor activity against human MOLM-13 cells xenografted in NOD/SCID mouse assessed as decrease in BAD phosphorylation at 10 mg/kg, ip daily for 2 weeks by western blot analysis; format: functional, organism-based
[18] = test system: MOLM-13; assay: Induction of apoptosis in human MOLM-13 cells assessed as necrotic cells at 1 uM incubated for 12 hrs by annexin-V and propidium iodide staining based flow cytometry analysis (reference value: 0.06%); format: functional
[19] = test system: MOLM-13; assay: Downregulation of c-myc levels in human MOLM-13 cells at 1 to 2 uM incubated for 12 hrs by western blot analysis; format: functional, cell-based; details: dose 1-2 µM
[20] = Drug concentration in Sprague Dawley rat at 2 mg/kg, iv measured after 24 hrs; format: ADME, organism-based; details: in vivo, read-out: Ct
[21] = target: Epidermal growth factor receptor (Homo sapiens, UniProt P00533, T790M); assay: Inhibition of recombinant human EGFR T790M mutant (696 to end residues) using GGMEDIYFEFMGG as substrate after 40 mins in presence of [gamma-33ATP] by radiometric scintillation counting analysis
Epidermal growth factor receptor (Homo sapiens, UniProt P00533, T790M), sequence (P00533 25-1210 T790M limits assumed): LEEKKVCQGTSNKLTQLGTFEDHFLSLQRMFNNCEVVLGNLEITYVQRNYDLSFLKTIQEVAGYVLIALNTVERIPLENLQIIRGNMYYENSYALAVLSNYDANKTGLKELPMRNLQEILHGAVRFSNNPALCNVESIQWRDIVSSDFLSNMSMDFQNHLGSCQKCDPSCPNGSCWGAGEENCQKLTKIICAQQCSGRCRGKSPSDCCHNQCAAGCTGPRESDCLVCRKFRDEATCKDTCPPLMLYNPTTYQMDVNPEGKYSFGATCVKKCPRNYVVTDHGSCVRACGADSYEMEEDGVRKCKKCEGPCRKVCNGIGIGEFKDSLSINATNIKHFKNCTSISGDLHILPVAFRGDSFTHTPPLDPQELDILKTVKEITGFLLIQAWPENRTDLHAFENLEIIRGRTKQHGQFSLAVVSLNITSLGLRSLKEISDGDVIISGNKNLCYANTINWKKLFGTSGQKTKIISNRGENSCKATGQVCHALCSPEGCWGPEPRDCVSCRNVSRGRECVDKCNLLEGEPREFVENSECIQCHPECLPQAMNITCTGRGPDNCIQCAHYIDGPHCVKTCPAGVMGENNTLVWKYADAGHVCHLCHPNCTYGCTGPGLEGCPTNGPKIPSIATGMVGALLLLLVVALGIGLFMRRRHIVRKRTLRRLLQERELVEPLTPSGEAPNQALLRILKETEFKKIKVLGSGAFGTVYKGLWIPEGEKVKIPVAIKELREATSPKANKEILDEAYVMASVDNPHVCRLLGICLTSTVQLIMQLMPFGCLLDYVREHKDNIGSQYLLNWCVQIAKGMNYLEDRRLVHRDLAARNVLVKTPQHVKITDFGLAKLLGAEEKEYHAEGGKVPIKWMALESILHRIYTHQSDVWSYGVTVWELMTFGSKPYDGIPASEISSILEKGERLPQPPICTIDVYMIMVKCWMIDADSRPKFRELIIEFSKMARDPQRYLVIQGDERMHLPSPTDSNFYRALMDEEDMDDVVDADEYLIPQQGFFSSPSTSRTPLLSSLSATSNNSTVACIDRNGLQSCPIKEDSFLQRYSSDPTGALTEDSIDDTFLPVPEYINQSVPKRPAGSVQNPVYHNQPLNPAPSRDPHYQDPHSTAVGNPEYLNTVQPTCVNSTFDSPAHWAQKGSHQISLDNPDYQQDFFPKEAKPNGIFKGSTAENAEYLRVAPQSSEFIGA

[22] = AUC (0 to infinity) in Sprague Dawley rat at 2 mg/kg, iv measured after 24 hrs; format: ADME, organism-based; set-up: route intravenous, time 24 hrs, dose 2 mg/kg; details: in vivo
[23] = test system: MOLM-13; assay: Antitumor activity against human MOLM-13 cells xenografted in NOD/SCID mouse assessed as decrease in eIF4E phosphorylation at 10 mg/kg, ip daily for 2 weeks by western blot analysis; format: functional, organism-based
[24] = test system: MOLM-13; assay: Induction of apoptosis in human MOLM-13 cells assessed as live cells at 1 uM incubated for 12 hrs by annexin-V and propidium iodide staining based flow cytometry analysis (reference value: 91.49%); format: functional
[25] = target: Epidermal growth factor receptor (Homo sapiens, UniProt P00533); assay: Inhibition of wild-type human partial length EGFR (R669 to V1011 residues) expressed in bacterial expression system at 1 uM by Kinomescan method relative to control
Epidermal growth factor receptor (Homo sapiens, UniProt P00533), sequence (P00533 whole entry, the tested form may be a part): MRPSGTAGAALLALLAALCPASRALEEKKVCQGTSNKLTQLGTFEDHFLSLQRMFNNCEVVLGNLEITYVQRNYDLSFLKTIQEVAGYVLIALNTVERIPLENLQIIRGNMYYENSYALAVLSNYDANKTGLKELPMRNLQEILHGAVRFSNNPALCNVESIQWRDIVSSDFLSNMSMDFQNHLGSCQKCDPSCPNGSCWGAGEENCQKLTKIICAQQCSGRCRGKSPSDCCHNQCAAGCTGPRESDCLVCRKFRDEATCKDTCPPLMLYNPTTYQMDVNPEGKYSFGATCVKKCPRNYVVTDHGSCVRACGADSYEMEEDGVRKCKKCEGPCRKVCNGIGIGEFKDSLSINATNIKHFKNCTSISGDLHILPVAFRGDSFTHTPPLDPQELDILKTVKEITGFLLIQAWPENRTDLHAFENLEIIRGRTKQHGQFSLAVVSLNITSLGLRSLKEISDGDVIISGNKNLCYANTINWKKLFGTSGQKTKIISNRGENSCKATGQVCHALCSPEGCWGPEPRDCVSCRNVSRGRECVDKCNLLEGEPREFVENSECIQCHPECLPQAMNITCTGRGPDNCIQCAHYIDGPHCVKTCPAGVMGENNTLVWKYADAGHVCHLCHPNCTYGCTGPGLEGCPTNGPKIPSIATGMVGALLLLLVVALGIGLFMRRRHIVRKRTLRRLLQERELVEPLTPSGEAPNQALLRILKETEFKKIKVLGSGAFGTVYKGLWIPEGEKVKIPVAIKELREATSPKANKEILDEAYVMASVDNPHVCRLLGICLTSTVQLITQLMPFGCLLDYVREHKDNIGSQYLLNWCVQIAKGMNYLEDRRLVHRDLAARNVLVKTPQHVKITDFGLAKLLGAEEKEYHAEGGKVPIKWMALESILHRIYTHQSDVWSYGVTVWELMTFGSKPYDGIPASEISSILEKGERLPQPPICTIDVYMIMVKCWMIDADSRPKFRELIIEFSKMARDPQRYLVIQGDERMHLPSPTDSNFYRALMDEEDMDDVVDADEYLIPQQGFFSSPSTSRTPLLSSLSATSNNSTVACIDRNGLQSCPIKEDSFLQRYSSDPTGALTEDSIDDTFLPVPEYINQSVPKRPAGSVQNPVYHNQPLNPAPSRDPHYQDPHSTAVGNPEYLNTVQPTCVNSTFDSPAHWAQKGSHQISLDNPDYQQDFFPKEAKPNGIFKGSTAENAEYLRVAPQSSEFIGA

[26] = Toxicity in NOD/SCID mouse xenografted with human MOLM-13 cells assessed as abnormal changes in liver at 5 to 10 mg/kg, ip daily for 2 weeks by hematoxylin-eosin staining based histological analysis; format: organism-based; details: in vivo, 336 h, dose 5-10 mg/kg
[27] = test system: MOLM-13; assay: Antitumor activity against human MOLM-13 cells xenografted in NOD/SCID mouse assessed as decrease in cyclin-D1 levels at 10 mg/kg, ip daily for 2 weeks by western blot analysis; format: functional, organism-based
[28] = test system: HL-60; assay: Antiproliferative activity against human HL-60 cells assessed as reduction of cell viability incubated for 72 hrs by trypan blue staining based cell counting analysis; format: functional
[29] = AUC (0 to t) in Sprague Dawley rat at 10 mg/kg, ip measured after 24 hrs; format: ADME, organism-based; set-up: route intraperitoneal, time 24 hrs, dose 10 mg/kg; details: in vivo
[30] = Metabolic stability in rat liver microsomes assessed as half life preincubated for 10 mins followed by NADPH addition and further incubated upto 60 mins by LC-MS/MS analysis; format: ADME, Microsome; details: time <=70 min
[31] = test system: MOLM-13; assay: Induction of apoptosis in human MOLM-13 cells assessed as late apoptotic cells at 2 uM incubated for 12 hrs by annexin-V and propidium iodide staining based flow cytometry analysis (reference value: 3.03%); format: functional
[32] = Toxicity in NOD/SCID mouse xenografted with human MOLM-13 cells assessed as abnormal changes in kidney at 5 to 10 mg/kg, ip daily for 2 weeks by hematoxylin-eosin staining based histological analysis; format: organism-based; details: in vivo, 336 h, dose 5-10 mg/kg
[33] = target: T1, MAP kinase-interacting serine/threonine-protein kinase 1/2 (Homo sapiens); assay: Inhibition of MNK1/MNK2 in human MOLM-13 cells assessed as reduction in eIF4E phosphorylation at 1 to 2 uM incubated for 12 hrs by western blot analysis; format: cell-based; details: dose 1-2 µM
[34] = Cmax in Sprague Dawley rat at 10 mg/kg, po measured after 24 hrs; format: ADME, organism-based; set-up: route oral, time 24 hrs, dose 10 mg/kg; details: in vivo

Compound: CC(C)Oc1cc(F)ccc1Nc1ncnc2ccc(-c3ccc(C(=O)N4CCNCC4)cc3)nc12
- Activity [1]: 6.83%
- inhibition in vivo at 10 mg/kg [2]: 57.6%
- Activity [3]: Active
- inhibition in vivo at 5 mg/kg [4]: 41.2%
- inhibition [5]: Dose-Dependent Effect
- inhibition [6]: 100%
- half-life [7]: 204 min
- CLint scaled [8]: 68.8 mL/min/kg
- inhibition [9]: Active
- Activity [10]: Active
- Activity [11]: Active
- Activity [12]: 0.73%
- IC50 [13]: 7 nM
- Activity [14]: 29.57%
- Tmax [15]: 40.2 min
- inhibition [16]: 87%
- Activity [17]: Active
- Activity [18]: 0.11%
- Activity [19]: Active
- concentration at 24 h [20]: 765 ng/mL
- IC50 [21]: > 10000 nM
- AUC(0-inf) [22]: 1720 ng·h/mL
- Activity [23]: Active
- Activity [24]: 90.09%
- inhibition [25]: 73%
- Activity [26]: Non-Toxic
- Activity [27]: Active
- GI50 [28]: 1500 nM
- AUC(0-t) at 24 h [29]: 1660 ng·h/mL
- half-life [30]: 36.1 min
- Activity [31]: 8.2%
- Activity [32]: Non-Toxic
- inhibition [33]: Active
- Cmax [34]: 224 ng/mL
